Patent US3969401A, “D-aminophenylacetic acid compounds and derivatives” (William H. Rorer, Inc., priority 1973, dated 1976)
Where a name gives a salt, the structure may show the parent alone.

Experiments:
carrageenan paw edema = assay: Carrageenan Paw Edema (CPE); assay type: in vivo, male rats
Method: Of the substances used to induce local irritation, carrageenan was selected since most known nonsteroidal anti-inflammatory agents inhibit this inflammation.
Ten male rats per dose group (120-150 g.) were given one-half of the test material orally. Thirty minutes later, the remainder of the dose was given and 0.2 ml. of a 1% carrageenan solution was injected subdermally into the plantar surface of the hind paw. Each paw is marked as a consistent anatomical site, then immersed in a mercury bath to that point. The mercury bath is connected to a pressure transducer and the volume of displacement is read directly on a recorder. Three hours after drug administration, the hind paw volume is measured again. The increased volume is an index of edema. Treated groups are compared to a placebo-treated group to calculate the percent inhibition of edema.
(§1) The test results are given in the following Table wherein the following legends were employed: PQW phenylquinone writhing RSA Randall-Selitto Analgesia CPE Carrageenan Paw Edema UVS Ultra-Violet Erythema FPG Filter Paper Granuloma AP Anti-Pyresis P.T. Pain Threshold No. P/T Number Positive/Total % ↑ Percentage Increase % ↓ Percentage Inhibition

ultra-violet erythema = assay: Ultra-violet Erythema in Guinea Pigs (UVE); assay type: in vivo, guinea pig
Source text: Erythema associated with inflammation was used in the assay. Restricted areas of a guinea pig were exposed to a controlled ultra-violet light and after two hours the exposed areas were graded for the extent of erythema.
as §1

polyarthritis (adjuvant) = assay: Polyarthritis in rats (adjuvant); assay type: in vivo
Method: Twelve rats per dose group were treated (b.i.d.) starting the day before injection of adjuvant. Paw volumes were measured for both hind paws on several days during and following drug treatment. Drug was given for a period of 15 days. The paw volume was compared to an untreated control group to determine volume increase. Drug action was calculated as the percent decrease in paw volume (inflammation) as compared to an adjuvant-treated control. Gross signs of inflammation were scored on a weekly basis and drug action calculated as a decrese in total score. Body weights were recorded at intervals.

Brewer's yeast fever = assay: Anti-Pyretic Assay (AP); assay type: in vivo, rats; settings: positive = rectal temperature decreases by 1° C. or more
Method: Brewer's yeast was injected subcutaneously in rats and rectal temperatures were obtained at the end of five hours. Those rats (10 per group) having a significant fever were given test compounds and rectal temperatures were measured at hourly intervals for 2 to 3 hours. (A positive response occurs when rectal temperature decreases by 1° C. or more).
as §1

[1] = test system: yeast-inflamed hind paw (pain threshold); assay: Randall-Selitto Analgesia Test (RSA); assay type: in vivo, rat
Method: In accordance with the Randall-Selitto test for measuring the pain threshold, the pressure needed on a metal plunger to give a "pain reponse" in a rat when the plunger is placed in the yeast-inflamed hind paw of a rat is measured. Following measurement of control pain threshold, yeast was injected into the paw and the test compound was given orally. The pain threshold was measured at hourly intervals and compared to a placebo-treated control group.
as §1

Acute Toxicity = settings: mouse, in vivo; male mice, oral single dose, observed nine days
Method: Food and water were delivered ad lib. The drug to be tested was prepared as a water suspension using one drop of "Tween 80" per 10 ml. and administered orally as a single dose (10 ml./kg.). The control group received the vehicle only (10 ml./kg.). The lethal dose (LD50) which is the dose of drug required to kill 50 percent of the animals tested, was determined by the Litchfield and Wilcoxon method.

phenylquinone writhing = assay: Phenylquinone analgesia (phenylquinone writhing, PQW); assay type: in vivo, mice
Method: Mice were pre-treated orally with test compound and then given 1.25 mg./kg. of phenylquinone i.p to produce a series of "writhes" (severe intestinal contractions). The number of writhes was recorded. The percent decrease was calculated from the incidence of writhes in a placebo-treated control group.
as §1

filter paper granuloma = assay: Filter Paper Granuloma (FPG); assay type: in vivo, rat
Method: This assay was used to evaluate anti-inflammatory agents and to determine the lowest dose which produces significant inhibition of granuloma growth. This assay has the advantage of being semi-acute (4 to 7 days). The usual end point involves obtaining the wet weight as well as the dry weight of the granuloma.
Small discs of filter paper saturated with carrageenan were placed subcutaneously in each rat on the first day of the study. Test compound was administered orally on a b.i.d. basis on Day 1 to Day 4. On Day 5, a single dose was given in the morning and the animals were sacrificed in the afternoon. Both filter paper discs were removed and trimmed of extraneous tissue and then weighed. After drying in an oven over the weekend, the dry weight was obtained. Activity was determined by the difference in granuloma weight between a placebo-treated control group and the drug-treated groups.
as §1

gastrointestinal tract = assay: Gastrointestinal tolerance; assay type: in vivo; settings: compared with the free acids

O=C(O)C(S)c1ccc(C2CCCCC2)c(Cl)c1 (stereo not drawn) [Compound 528A, Diethylammonium salt of m-chloro-p-cyclohexyl-α-mercaptophenylacetic acid]
CPE % inhibition of edema (carrageenan paw edema; 100 mg/kg P.O): 52.0%
UVE No. P/T (Number Positive/Total) (ultra-violet erythema; 5 mg/kg P.O): 5/8
UVE No. P/T (Number Positive/Total) (ultra-violet erythema; 10 mg/kg P.O): 5/8
UVE No. P/T (Number Positive/Total) (ultra-violet erythema; 25 mg/kg P.O): 7/8
ED50 (ultra-violet erythema; Cavia porcellus, po, P.O): 10.5 mg/kg
Polyarthritis % av. inhibition, injected hind-paw (polyarthritis (adjuvant); 100 mg./kg./day P.O): 52.8%
Polyarthritis % av. inhibition, noninjected hind-paw (polyarthritis (adjuvant); 100 mg./kg./day P.O): 35.6%
Polyarthritis % av. inhibition, secondary lesions (polyarthritis (adjuvant); 100 mg./kg./day P.O): 34.0%

O=C1NC(=O)C(c2ccc(C3CCCCC3)c(Cl)c2)S1 (centres unmarked) [Compound 529, 5-(m-Chloro-p-cyclohexylphenyl)-2,4-dioxothiazolidine]
CPE % inhibition of edema (carrageenan paw edema; 50 mg/kg P.O): 17.4%
CPE % inhibition of edema (carrageenan paw edema; 100 mg/kg P.O): 30%
AP No. P/T (Number Positive/Total) (Brewer's yeast fever; 100 mg/kg P.O): 1/8
Polyarthritis % av. inhibition, injected hind-paw (polyarthritis (adjuvant); 100 mg./kg./day P.O): 42.0%
Polyarthritis % av. inhibition, noninjected hind-paw (polyarthritis (adjuvant); 100 mg./kg./day P.O): 17.3%
Polyarthritis % av. inhibition, secondary lesions (polyarthritis (adjuvant); 100 mg./kg./day P.O): 21.0%

N=C1NC(=O)C(c2ccc(C3CCCCC3)c(Cl)c2)S1 (centres unmarked) [Compound 530, 5-(m-Chloro-p-cyclohexylphenyl)-2-imino-4-oxothiazolidine]
RSA % increase of pain threshold (PT) ([1]; 100 mg/kg P.O): 51.4%
Polyarthritis % av. inhibition, injected hind-paw (polyarthritis (adjuvant); 100 mg./kg./day P.O): 38.1%
Polyarthritis % av. inhibition, noninjected hind-paw (polyarthritis (adjuvant); 100 mg./kg./day P.O): 44.7%
Polyarthritis % av. inhibition, secondary lesions (polyarthritis (adjuvant); 100 mg./kg./day P.O): 17.3%

O=C(O)C(SSC(C(=O)O)c1ccc(C2CCCCC2)c(Cl)c1)c1ccc(C2CCCCC2)c(Cl)c1 (stereo not drawn) [Compound 531A, Diethylammonium salt of α,α'-di-(m-chloro-p-cyclohexylphenyl)-α',α'-dithiodiacetic acid]
CPE % inhibition of edema (carrageenan paw edema; 100 mg/kg P.O): 19.9%
RSA % increase of pain threshold (PT) ([1]; 50 mg/kg P.O): 32%
RSA % increase of pain threshold (PT) ([1]; 100 mg/kg P.O): 28%
RSA % increase of pain threshold (PT) ([1]; 200 mg/kg P.O): 51%
AP No. P/T (Number Positive/Total) (Brewer's yeast fever; 50 mg/kg P.O): 1/8
AP No. P/T (Number Positive/Total) (Brewer's yeast fever; 100 mg/kg P.O): 1/8
AP No. P/T (Number Positive/Total) (Brewer's yeast fever; 200 mg/kg P.O): 6/8
Polyarthritis % av. inhibition, injected hind-paw (polyarthritis (adjuvant); 100 mg./kg./day P.O): 34.0%
Polyarthritis % av. inhibition, noninjected hind-paw (polyarthritis (adjuvant); 100 mg./kg./day P.O): 44.7%
Polyarthritis % av. inhibition, secondary lesions (polyarthritis (adjuvant); 100 mg./kg./day P.O): 30.3%
Polyarthritis % av. inhibition, injected hind-paw (polyarthritis (adjuvant); 200 mg./kg./day P.O): 35.6%
Polyarthritis % av. inhibition, noninjected hind-paw (polyarthritis (adjuvant); 200 mg./kg./day P.O): 43.8%
Polyarthritis % av. inhibition, secondary lesions (polyarthritis (adjuvant); 200 mg./kg./day P.O): 43.6%
LD50 at 216 h (Acute Toxicity): > 2000 mg/kg

O=C(O)C(Cl)c1ccc(C2CCCCC2)c(Cl)c1 (stereo not drawn) [Compound 539A, Sodium salt of α,m-dichloro-p-cyclohexylphenylacetic acid]
PQW % inhibition (decrease in writhes) (phenylquinone writhing; 2 mg/kg P.O): 13.1%
PQW % inhibition (decrease in writhes) (phenylquinone writhing; 5 mg/kg P.O): 13.1%
PQW % inhibition (decrease in writhes) (phenylquinone writhing; 10 mg/kg P.O): 54.6%
PQW % inhibition (decrease in writhes) (phenylquinone writhing; 20 mg/kg P.O): 84.5%
PQW % inhibition (decrease in writhes) (phenylquinone writhing; 30 mg/kg P.O): 96.6%
ED50 (phenylquinone writhing; Mus musculus, po, P.O): 9.6 mg/kg
CPE % inhibition of edema (carrageenan paw edema; 1 mg/kg P.O): 10%
CPE % inhibition of edema (carrageenan paw edema; 2 mg/kg P.O): 30.3%
CPE % inhibition of edema (carrageenan paw edema; 3.125 mg/kg P.O): 34.6%
CPE % inhibition of edema (carrageenan paw edema; 5 mg/kg P.O): 29.5%
CPE % inhibition of edema (carrageenan paw edema; 6.25 mg/kg P.O): 42.0%
CPE % inhibition of edema (carrageenan paw edema; 12.5 mg/kg P.O): 47.2%
CPE % inhibition of edema (carrageenan paw edema; 25 mg/kg P.O): 43.0%
CPE % inhibition of edema (carrageenan paw edema; 50 mg/kg P.O): 52.0%
CPE % inhibition of edema (carrageenan paw edema; 100 mg/kg P.O): 64.0%
RSA % increase of pain threshold (PT) ([1]; 25 mg/kg P.O): 41.8%
RSA % increase of pain threshold (PT) ([1]; 50 mg/kg P.O): 49.3%
RSA % increase of pain threshold (PT) ([1]; 100 mg/kg P.O): 77.6%
AP No. P/T (Number Positive/Total) (Brewer's yeast fever; 6.25 mg/kg P.O): 0/8
AP No. P/T (Number Positive/Total) (Brewer's yeast fever; 12.5 mg/kg P.O): 3/8
AP No. P/T (Number Positive/Total) (Brewer's yeast fever; 25 mg/kg P.O): 2/8
AP No. P/T (Number Positive/Total) (Brewer's yeast fever; 50 mg/kg P.O): 6/8
AP No. P/T (Number Positive/Total) (Brewer's yeast fever; 100 mg/kg P.O): 8/8
Polyarthritis % av. inhibition, injected hind-paw (polyarthritis (adjuvant); 10 mg./kg./day P.O): 41.8%
Polyarthritis % av. inhibition, noninjected hind-paw (polyarthritis (adjuvant); 10 mg./kg./day P.O): 14.1%
Polyarthritis % av. inhibition, secondary lesions (polyarthritis (adjuvant); 10 mg./kg./day P.O): 28.2%
Polyarthritis % av. inhibition, injected hind-paw (polyarthritis (adjuvant); 25 mg./kg./day P.O): 50.2%
Polyarthritis % av. inhibition, noninjected hind-paw (polyarthritis (adjuvant); 25 mg./kg./day P.O): 12.1%
Polyarthritis % av. inhibition, secondary lesions (polyarthritis (adjuvant); 25 mg./kg./day P.O): 44.0%
Polyarthritis % av. inhibition, injected hind-paw (polyarthritis (adjuvant); 50 mg./kg./day P.O): 45%
Polyarthritis % av. inhibition, noninjected hind-paw (polyarthritis (adjuvant); 50 mg./kg./day P.O): 59.6%
Polyarthritis % av. inhibition, secondary lesions (polyarthritis (adjuvant); 50 mg./kg./day P.O): 39.3%
Polyarthritis % av. inhibition, injected hind-paw (polyarthritis (adjuvant); 100 mg./kg./day P.O): 59.1%
Polyarthritis % av. inhibition, noninjected hind-paw (polyarthritis (adjuvant); 100 mg./kg./day P.O): 51.2%
Polyarthritis % av. inhibition, secondary lesions (polyarthritis (adjuvant); 100 mg./kg./day P.O): 30.1%
EPG (Filter Paper Granuloma) % inhibition, dry weight (filter paper granuloma; 25 mg./kg./day P.O): 41.1%
EPG (Filter Paper Granuloma) % inhibition, wet weight (filter paper granuloma; 25 mg./kg./day P.O): 31.7%
EPG (Filter Paper Granuloma) % inhibition, dry weight (filter paper granuloma; 50 mg./kg./day P.O): 38.8%
EPG (Filter Paper Granuloma) % inhibition, wet weight (filter paper granuloma; 50 mg./kg./day P.O): 43.9%
LD50 at 216 h (Acute Toxicity): 430 mg/kg

CCOC(=O)C(Cl)c1ccc(C2CCCCC2)c(Cl)c1 (stereo not drawn) [Compound 541, α,m-Dichloro-p-cyclohexylphenylacetic acid ethyl ester]
CPE % inhibition of edema (carrageenan paw edema; 6.25 mg/kg P.O): 51.3%
CPE % inhibition of edema (carrageenan paw edema; 12.5 mg/kg P.O): 38.8%
CPE % inhibition of edema (carrageenan paw edema; 25 mg/kg P.O): 49.8%
CPE % inhibition of edema (carrageenan paw edema; 50 mg/kg P.O): 52.2%
gastrointestinal tolerability (gastrointestinal tract): better tolerated and not as irritating on the gastrointestinal tract as the free acids
